In patent US20050250726A1, “Immunostimulatory nucleic acid for treatment of non-allergic inflammatory diseases” (University of Iowa Research Foundation, priority 2001, published 2005):
Strand notation (5' to 3'): a small letter for the sugar, then the base; units joined by * are phosphorothioate-linked, units joined directly phosphodiester-linked; [ ] holds rarer units or linkages, { } end groups; capitals alone tell only the bases. d = 2'-deoxy (DNA)

What was measured:
[1] = system: BALB/c mouse spleen cells; test: IFN-γ secretion from CpG DNA-stimulated spleen cells (ELISA); assay type: cell-based; settings: for IFN-γ: BALB/c spleen cells preincubated 30 min with SC-58236 0.125 μM, PGE2 0.1 μM, 2B5 or control antibody 6.7 μg/mL, then CpG ODN 1826 0.3 μg/mL for 24 h, supernatant ELISA
Method: Cell culture conditions. RAW 264.7 cells and murine spleen cells were cultured in RPMI 1640 supplemented with 10% FCS, 2 mM L-glutamine, 0.05 mM 2-mercaptoethanol, penicillin (100 U/ml) and streptomycin (100 U/ml) in 12-well tissue culture plates (Costar, Corning, N.Y.). Cells were incubated in media alone or media supplemented with ODN. Supernatants from triplicate cultures were harvested and stored at −70° C. before analysis for PG or cytokine concentration. Cells were subsequently harvested for either RNA or protein isolation. In some cultures, ODN-stimulated spleen cells were incubated in the presence of PGE2 (0.1 μM), piroxicam (16 μM), SC-58236 (0.125 μM), anti-PGE2 antibody 2B5 (6.7 μg/ml), or isotype antibody MOPC21 (6.7 μg/ml). For quantitative analysis of macrophage PG production, RAW 264.4 cells were cultured at 1×10^5 cells/ml in media or media with ODN (3 μg/ml). After 24 h of culture the supernatant was removed and cells were incubated in PBS supplemented with arachidonic acid (10 μM).
Cytokine quantification. IFN-γ detection was performed using a cytokine ELISA kit from PharMingen (San Diego, Calif.). Immulon-1B microtiter plates were obtained from Dynatech (Chantilly, Calif.). After incubation with peroxidase substrate (tetramethylbenzidine) the plates were read at 650 nm on a microplate reader (Cambridge Technology, Watertown, Mass.).
COX inhibitors enhance IFN-γ secretion induced by CpG DNA. CpG DNA is known to elicit strong Th1-like immune responses both in vitro and in vivo. Klinman D M et al. (1996) Proc Natl Acad Sci USA 93:2879-83. In contrast, PGE2, which is induced by CpG DNA, can inhibit Th1 responses. Betz M et al. (1991) J Immunol 146:108-13. Murine spleen cells were stimulated with CpG DNA in the presence of piroxicam, a non-selective COX inhibitor, or SC-58236, a selective inhibitor of COX-2, and quantified IFN-γ production. […] Neither COX inhibitor alone stimulated IFN-γ secretion.
Inhibition of PGE2 synthesis plays an important role in enhancing IFN-γ secretion. The blockade of the COX enzyme will inhibit synthesis of multiple PG (e.g., PGE2, PGD2 and dPGJ2), all of which potentially can inhibit Th1 immune responses. To assess the role of PGE2 in the modulation of IFN-γ secretion elicited by CpG ODN, a neutralizing antibody (2B5) specific for PGE2 was added into CpG DNA-stimulated spleen cell-cultures. […] The enhancement was similar in magnitude to that observed when COX inhibitors were added to the cultures (Table 3).

YAC-1 target cells = test: NK cytotoxicity assay, 4-h 51Cr-release against YAC-1 target cells; assay type: cell-based, mouse; settings: for NK activity, Mouse Spleen Cells (LU/10^6): B cell-depleted C57BL/6 spleen cells, 18 h, IL-2 100 U/mL, ODN 1585 5 μg/mL, SC-58236 0.25 μg/mL, PGE2 0.1 μg/mL, 1 LU = 30% 51Cr release; for effect on NK lytic activity induced by CpG DNA: B cell-depleted murine spleen cells stimulated with ODN 1585
Method: Cytotoxicity assay. Spleen cells from C57BL/6 mice were depleted of B cells using paramagnetic beads coated with goat anti-mouse Ig as previously described. Ballas Z K et al. (1990) J Immunol 145:1039-45; Ballas Z K et al. (1993) J Immunol 150:17-30. […] […] Cultures were harvested at 18 h and the cells were used as effectors in a standard 4-h ^51Cr-release assay against YAC-1 target cells labeled with Na^51CrO4 (Amersham Life Science, Arlington Heights, Ill.) as described previously. Ballas Z K et al. (1990) J Immunol 145:1039-45; Ballas Z K et al. (1993) J Immunol 150:17-30; Ballas Z K et al. (1990) J Allergy Clin Immunol 85:453-39. One lytic unit (LU) was defined as the number of the cells needed to exert 30% specific lysis.
It has previously been reported that certain CpG DNA sequences can elicit strong lytic activity in NK cells (Ballas Z K et al. (1996) J Immunol 157:1840-45), whereas exogenous PGE2 is known to inhibit the activity of NK cell killing (Kanar M C et al. (1988) J Clin Immunol 8:69-79; Young M R et al. (1986) J Natl Cancer Inst 77:425-29). B cell-depleted murine spleen cells were stimulated with the stimulatory ODN 1585 in the presence or absence of a COX inhibitor.

BALB/c mice = test: Serum IFN-γ in vivo after COX inhibitor and ODN 1826 injection; design: species or system mouse; settings: SC-58236 20 mg/kg i.p. 1 h before 30 μg ODN 1826, serum 5 h post ODN, FIG. 3
Method: In vivo experiments. BALB/c mice were injected i.p. with 0.2 ml of diluent or SC-58236 (20 mg/kg). One hour later, mice were injected with 30 μg of ODN 1826 or PBS. Five hours later, the mice were anaesthetized with Avertin (Aldrich, Milwaukee, Wis.) and blood was obtained from the retro-orbital plexus. The blood was allowed to clot on ice for 1 h and centrifuged at 10,000 r.p.m. for 10 min. The serum was used for IFN-γ determination by ELISA (as described above).
COX inhibitors augment IFN-γ production in vivo. To determine whether COX inhibitors could also enhance the immune stimulatory effects of CpG-DNA in vivo, mice were treated with COX inhibitors (piroxicam or SC-58236) and subsequently injected with stimulatory ODN 1826. Serum IFN-γ levels were quantified 5 h post ODN injection.

COX-2 mRNA = test: RNase protection assay for COX-2 mRNA in RAW 264.7 macrophages; assay type: cell-based, murine; settings: ODN 3 μg/ml; for increase in COX-2 mRNA: 0-24 h
Method: RNase protection assay. A murine COX-2 cDNA fragment (nucleotides 205-505; GenBank accession no. M88242) was synthesized by RT-PCR using mouse brain RNA as a template and cloned into pGEM-4. Fragments of the RPL32-4A gene were also cloned into pGEM-4. Dudov K P et al. (1984) Cell 37:457-68. L32 served as an internal loading control. RNase protection assay (RPA) for the detection of COX-2 was performed as previously described. Stadler A et al. (1998) In: Neurodegeneration Methods and Protocols, Harry J and Tilson H A, eds., Humana Press, Totowa, N.J., p. 53. Briefly, for the synthesis of a ^32P-radiolabeled anti-sense RNA probe, equimolar mixtures of the linearized COX-2 and L32 templates were used. Hybridization reactions were performed overnight at 56° C. Following RNase digestion, the RNA duplexes were isolated by electrophoresis in a standard 7.5% acrylamide/12 M urea/0.5% TBE sequencing gel. Dried gels were placed on BMR filmhand were exposed at −70° C.
Films and photographs of RPA or Western blots were scanned in at 6000 DPI using an Epson Expression 1600 scanner. Densitometric analysis was performed using Vtrace (developed at the University of Iowa Image Analysis Facility) operating on a SGI O2 Workstation. Average and integrated OD measurements were made on user-selected regions. A Kodak photographic step tablet was used to calibrate optical density.
Immunostimulatory ODN induce COX-2 mRNA. RAW 264.7 macrophages were incubated with media or ODN (3 μg/ml) for varying time periods (0, 2, 4, 6 and 24 h) and RNA isolated for COX-2 expression using RPA.

COX-2 protein = test: Western blotting of COX-2 protein in RAW 264.7 cells; assay type: cell-based, murine
Method: Western blotting. Protein was isolated from cultured cells by resuspending in lysis buffer [50 mM Tris (hydroxymethyl) aminomethane, pH 7.5, 150 mM NaCl, 100 μg/ml PMSF, 1 μg/ml aprotinin, 1 μg/ml leupeptin, 1 mM diethyldithiocarbamic acid, 1% NP-40 and 1% sodium deoxycholate]. Cells were lysed by sonication (20 s, 4° C.). Debris was eliminated by centrifugation (15 min, 1000 g). Protein concentration was measured using a commercial reagent based on BCA staining (Pierce, Rockford, Ill.), using BSA as an internal standard. Equal amounts of cellular protein were loaded onto a 10% polyacrylamide gel and separated by electrophoresis (200 V for 45 min). Proteins were then transferred to nitrocellulose (100 V for 1 h) and the membrane was blocked with 5% non-fat dry milk. The nitrocellulose was then incubated with a rabbit polyclonal primary antibody (anti-COX-2, 1:1000, Cayman; anti-COX-1, 1:1000, Santa Cruz) overnight at 4° C. Antibody labeling was detected using enhanced chemiluminescence (ECL; Amersham) as per the manufacturer's instructions. Specificity of the anti-cyclooxygenase antibody was confirmed with the use of ram seminal vesicle PGHS-1 (COX-1, Oxford Biomedical Research, Oxford, Mich.) and sheep placenta PGHS-2 (COX-2, Cayman).
Films and photographs of RPA or Western blots were scanned in at 6000 DPI using an Epson Expression 1600 scanner. […]

Molecule | IFN-γ [1] | NK activity, Mouse Spleen Cells (LU/10^6) (YAC-1 target cells) | effect on NK lytic activity induced by CpG DNA (YAC-1 target cells) | increase in COX-2 mRNA (COX-2 mRNA) | COX-2 protein induction (COX-2 protein) | other results
CCCCC[C@H](O)/C=C/[C@H]1[C@H](O)CC(=O)[C@@H]1C/C=C\CCCC(=O)O [PGE2, prostaglandin E2] | 0 ± 4 pg/mL | 0.0 LU/10^6 | abolished the lytic activity | – | – | –
NS(=O)(=O)c1ccc(-n2nc(C(F)(F)F)cc2-c2ccc(Cl)cc2)cc1 [SC-58236] | 0 ± 2 pg/mL | 0.0 LU/10^6 | enhanced the NK activity | – | – | increase in serum IFN-γ above mice injected with ODN 1826 alone (BALB/c mice): 4.6 fold; enhancement of IFN-γ secretion from CpG DNA-stimulated spleen cells ([1]; inhibitor added to CpG DNA-stimulated murine spleen cells): 2 fold
ODN 1826 | 1960 ± 247 pg/mL | – | – | effectively increased COX-2 mRNA | marked induction | COX-2 mRNA levels over the 24-h time period (COX-2 mRNA): remained elevated; time to induction of COX-2 mRNA expression (COX-2 mRNA): ≤ 2 h; COX-2 mRNA, 6 h level fold greater than 0 h (COX-2 mRNA; 6 h): 21 fold
ODN 1982: non-stimulatory control ODN (dT*dC*dC*dA*dG*dG*dA*dC*dT*dT*dC*dT*dC*dT*dC*dA*dG*dG*dT*dT) | – | – | – | no significant increase | no induction | –
ggGGTCAACGTTGAgggggG (dG*dG*dGdGdTdCdAdAdCdGdTdTdGdAdG*dG*dG*dG*dG*dG) [ODN 1585, immunostimulatory CpG ODN] | – | 7.3 LU/10^6 | – | – | – | –
